From patent US12419917B2, “Compositions and methods for treatment of conditions using fractionated honey” (NDAL MFG INC, priority 2021, dated 2025)

Test system: SARS-CoV-2
Format: cell-based
Conditions: 1-hour contact at 22 ± 2° C., cleanser 100%, ethanol 70%

CCO [Ethanol]
LRV (log reduction value) compared to the virus control (<1 log reduction not considered active): >4.3
Virus Titer (virus control titer 5.0, limit of detection 0.7): <0.7 log10 CCID50 of virus per 0.1 mL
